Test results: PubChem BioAssay (NCI)
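Cells were grown in 96-well plates and exposed to each compound for 48 hours at five concentrations; endpoints were interpolated linearly between bracketing concentrations, or set to the highest concentration if not reached. TGI: concentration producing complete growth inhibition.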

What was measured:
Assay in all cases: inhibition of tumour cell growth, NCI panel, 48 h
SNB-75 CNS = tested on: SNB-75 CNS
SN12C renal = tested on: SN12C renal
OVCAR-8 ovarian = tested on: OVCAR-8 ovarian
SW-620 colon = tested on: SW-620 colon
M14 melanoma = tested on: M14 melanoma
SNB-19 CNS = tested on: SNB-19 CNS
RXF 393 renal = tested on: RXF 393 renal
TK-10 renal = tested on: TK-10 renal
SK-MEL-28 melanoma = tested on: SK-MEL-28 melanoma
NCI-H460 lung = tested on: NCI-H460 lung
HOP-62 NSCLC = tested on: HOP-62 NSCLC
SK-MEL-2 melanoma = tested on: SK-MEL-2 melanoma
K-562 leukemia = tested on: K-562 leukemia
SF-268 CNS = tested on: SF-268 CNS
OVCAR-3 ovarian = tested on: OVCAR-3 ovarian
HCT-116 colon = tested on: HCT-116 colon
MCF7 breast = tested on: MCF7 breast
SF-539 CNS = tested on: SF-539 CNS
U251 CNS = tested on: U251 CNS
RPMI-8226 leukemia = tested on: RPMI-8226 leukemia
T-47D breast = tested on: T-47D breast
HOP-92 NSCLC = tested on: HOP-92 NSCLC
IGROV1 ovarian = tested on: IGROV1 ovarian
UACC-62 melanoma = tested on: UACC-62 melanoma
HCC-2998 colon = tested on: HCC-2998 colon
HCT-15 colon = tested on: HCT-15 colon
SF-295 CNS = tested on: SF-295 CNS
NCI-H226 lung = tested on: NCI-H226 lung
OVCAR-4 ovarian = tested on: OVCAR-4 ovarian
MDA-MB-231 breast = tested on: MDA-MB-231 breast
BT-549 breast = tested on: BT-549 breast
MDA-MB-435 = tested on: MDA-MB-435
HS 578T breast = tested on: HS 578T breast
CAKI-1 renal = tested on: CAKI-1 renal
OVCAR-5 ovarian = tested on: OVCAR-5 ovarian
MALME-3M melanoma = tested on: MALME-3M melanoma
ACHN renal = tested on: ACHN renal
SK-MEL-5 melanoma = tested on: SK-MEL-5 melanoma
EKVX NSCLC = tested on: EKVX NSCLC
COLO 205 colon = tested on: COLO 205 colon
UACC-257 melanoma = tested on: UACC-257 melanoma
NCI-H23 lung = tested on: NCI-H23 lung
NCI/ADR-RES ovarian = tested on: NCI/ADR-RES ovarian
PC-3 prostate = tested on: PC-3 prostate
UO-31 renal = tested on: UO-31 renal
A549 NSCLC = tested on: A549 NSCLC
KM12 colon = tested on: KM12 colon
LOX IMVI melanoma = tested on: LOX IMVI melanoma
NCI-H522 lung = tested on: NCI-H522 lung
MDA-N = tested on: MDA-N
A498 renal = tested on: A498 renal
DU-145 prostate = tested on: DU-145 prostate
786-0 renal = tested on: 786-0 renal
MOLT-4 leukemia = tested on: MOLT-4 leukemia
SR leukemia = tested on: SR leukemia
HT29 colon = tested on: HT29 colon
CCRF-CEM leukemia = tested on: CCRF-CEM leukemia
SK-OV-3 ovarian = tested on: SK-OV-3 ovarian
HL-60(TB) leukemia = tested on: HL-60(TB) leukemia

CC(C)=CCC[C@@H](C)/C=C/C=C(\C)C(=O)CC[C@@H]1CC[N@+]2(C)CCCC[C@H]12
TGI (SNB-75 CNS): > 100 µM
TGI (SN12C renal): > 100 µM
TGI (OVCAR-8 ovarian): > 100 µM
TGI (SW-620 colon): > 100 µM
TGI (M14 melanoma): > 100 µM
TGI (SNB-19 CNS): > 100 µM
TGI (RXF 393 renal): > 100 µM
TGI (TK-10 renal): > 100 µM
TGI (SK-MEL-28 melanoma): > 100 µM
TGI (NCI-H460 lung): > 100 µM
TGI (HOP-62 NSCLC): > 100 µM
TGI (SK-MEL-2 melanoma): > 100 µM
TGI (K-562 leukemia): > 100 µM
TGI (SF-268 CNS): > 100 µM
TGI (OVCAR-3 ovarian): > 100 µM
TGI (HCT-116 colon): > 100 µM
TGI (MCF7 breast): > 100 µM
TGI (SF-539 CNS): > 100 µM
TGI (U251 CNS): > 100 µM
TGI (RPMI-8226 leukemia): > 100 µM
TGI (T-47D breast): > 100 µM
TGI (HOP-92 NSCLC): > 100 µM
TGI (IGROV1 ovarian): > 100 µM
TGI (UACC-62 melanoma): > 100 µM
TGI (HCC-2998 colon): > 100 µM
TGI (HCT-15 colon): > 100 µM
TGI (SF-295 CNS): > 100 µM
TGI (NCI-H226 lung): > 100 µM
TGI (OVCAR-4 ovarian): > 100 µM
TGI (MDA-MB-231 breast): > 100 µM
TGI (BT-549 breast): > 100 µM
TGI (MDA-MB-435): > 100 µM
TGI (HS 578T breast): > 100 µM
TGI (CAKI-1 renal): > 100 µM
TGI (OVCAR-5 ovarian): > 100 µM
TGI (MALME-3M melanoma): > 100 µM
TGI (ACHN renal): > 100 µM
TGI (SK-MEL-5 melanoma): > 100 µM
TGI (EKVX NSCLC): > 100 µM
TGI (COLO 205 colon): > 100 µM
TGI (UACC-257 melanoma): > 100 µM
TGI (NCI-H23 lung): > 100 µM
TGI (NCI/ADR-RES ovarian): > 100 µM
TGI (PC-3 prostate): > 100 µM
TGI (UO-31 renal): > 100 µM
TGI (A549 NSCLC): > 100 µM
TGI (KM12 colon): > 100 µM
TGI (LOX IMVI melanoma): > 100 µM
TGI (NCI-H522 lung): > 100 µM
TGI (MDA-N): > 100 µM
TGI (A498 renal): > 100 µM
TGI (DU-145 prostate): > 100 µM
TGI (786-0 renal): > 100 µM
TGI (MOLT-4 leukemia): > 100 µM
TGI (SR leukemia): > 100 µM

Cc1cc2c(c(C=Nc3ccccc3O)c1)OC1(C=C2)Oc2ccccc2C(=O)N1C (stereo not given)
TGI (SNB-75 CNS): 52.3 µM
TGI (SN12C renal): 46.5 µM
TGI (OVCAR-8 ovarian): 43.6 µM
TGI (SW-620 colon): 86.7 µM
TGI (M14 melanoma): 57.5 µM
TGI (SNB-19 CNS): > 100 µM
TGI (RXF 393 renal): 37.2 µM
TGI (TK-10 renal): 48 µM
TGI (HT29 colon): 30.2 µM
TGI (SK-MEL-28 melanoma): 47.5 µM
TGI (CCRF-CEM leukemia): 46.3 µM
TGI (SK-OV-3 ovarian): 58.4 µM
TGI (NCI-H460 lung): 30.6 µM
TGI (HOP-62 NSCLC): 66.3 µM
TGI (SK-MEL-2 melanoma): 50 µM
TGI (K-562 leukemia): 62.2 µM
TGI (SF-268 CNS): 36.3 µM
TGI (OVCAR-3 ovarian): 29.4 µM
TGI (HCT-116 colon): 27.5 µM
TGI (U251 CNS): 41 µM
TGI (RPMI-8226 leukemia): 84.3 µM
TGI (T-47D breast): 8.45 µM
TGI (HOP-92 NSCLC): 32.2 µM
TGI (HL-60(TB) leukemia): > 100 µM
TGI (IGROV1 ovarian): 58.5 µM
TGI (UACC-62 melanoma): 36.2 µM
TGI (HCC-2998 colon): 29.2 µM
TGI (HCT-15 colon): 30.9 µM
TGI (SF-295 CNS): 68.2 µM
TGI (NCI-H226 lung): 36.4 µM
TGI (OVCAR-4 ovarian): 60 µM
TGI (MDA-MB-231 breast): 37.5 µM
TGI (BT-549 breast): 47.8 µM
TGI (MDA-MB-435): 82 µM
TGI (HS 578T breast): 55.3 µM
TGI (CAKI-1 renal): 42.2 µM
TGI (OVCAR-5 ovarian): 30 µM
TGI (ACHN renal): 40.3 µM
TGI (SK-MEL-5 melanoma): 36.4 µM
TGI (EKVX NSCLC): 40.5 µM
TGI (COLO 205 colon): 54.5 µM
TGI (UACC-257 melanoma): 30.8 µM
TGI (NCI-H23 lung): 34.6 µM
TGI (NCI/ADR-RES ovarian): 37.5 µM
TGI (PC-3 prostate): 48.7 µM
TGI (UO-31 renal): 31.4 µM
TGI (A549 NSCLC): 70.8 µM
TGI (KM12 colon): 41.3 µM
TGI (LOX IMVI melanoma): 25.4 µM
TGI (MDA-N): 77.3 µM
TGI (A498 renal): 56.1 µM
TGI (DU-145 prostate): 39.9 µM
TGI (786-0 renal): 37.5 µM
TGI (MOLT-4 leukemia): 51 µM
TGI (SR leukemia): 48 µM
